The values below are quoted from earlier work in patent US20090239923A1 (priority 2008, published 2009).

The series relates to human body. As to conditions: ingestion, 70 Kg human body; 90 mL = 70 g.

With `CO` [methanol], the Lethal dose is 90 mL.
